# From US20230274799A1, “SYSTEMS AND METHODS FOR PATIENT STRATIFICATION AND IDENTIFICATION OF POTENTIAL BIOMARKERS” (Berg LLC, priority 2016, published 2023)
# How the values were obtained:
# [1] = Pharmacokinetics of Coenzyme Q10 in plasma during and after 144-hour continuous IV infusion; type: in vivo, human; design: Coenzyme Q10 concentration in plasma, Mean ± SD: unit not given here
# Procedure: Pharmacokinetics of Coenzyme Q10 was measured in the patients at time zero and at several time points during and after the 144-hour continuous intravenous (IV) infusion with Coenzyme Q10.
# [2] = system: solid tumors; experiment: Tumor response evaluation in Phase I trial; type: in vivo, human; conditions: Sixteen of 66 patients
# Procedure: Tumor response was evaluated at week 2 and then after every 2 cycles. Sixteen of 66 patients (24%) maintained a minimum of Stable Disease for >4 cycles. Tumor response data was used to stratify the patients into “overall clinical benefit” or “no clinical benefit” groups.
compound,measurement,setting,value
COC1=C(OC)C(=O)C(C/C=C(\C)CC/C=C(\C)CC/C=C(\C)CC/C=C(\C)CC/C=C(\C)CC/C=C(\C)CC/C=C(\C)CC/C=C(\C)CC/C=C(\C)CCC=C(C)C)=C(C)C1=O [Coenzyme Q10],"Coenzyme Q10 concentration in plasma, Mean ± SD","[1]; 274 mg/kg/week, Arm 1, n = 3 (so in the source), time 2 hr",175 ± 42
same,"Coenzyme Q10 concentration in plasma, Mean ± SD","[1]; 274 mg/kg/week, Arm 1, n = 3 (so in the source), time 4 hr",185 ± 51
same,"Coenzyme Q10 concentration in plasma, Mean ± SD","[1]; 274 mg/kg/week, Arm 1, n = 3 (so in the source), time 24 hr",261 ± 149
same,"Coenzyme Q10 concentration in plasma, Mean ± SD","[1]; 274 mg/kg/week, Arm 1, n = 3 (so in the source), time 71.5 hr",390 ± 260
same,"Coenzyme Q10 concentration in plasma, Mean ± SD","[1]; 274 mg/kg/week, Arm 1, n = 3 (so in the source), time 73 hr",329 ± 260
same,"Coenzyme Q10 concentration in plasma, Mean ± SD","[1]; 274 mg/kg/week, Arm 1, n = 3 (so in the source), time 74 hr",335 ± 242
same,"Coenzyme Q10 concentration in plasma, Mean ± SD","[1]; 274 mg/kg/week, Arm 1, n = 3 (so in the source), time 96 hr",416 ± 291
same,"Coenzyme Q10 concentration in plasma, Mean ± SD","[1]; 274 mg/kg/week, Arm 1, n = 3 (so in the source), time 140 hr",513 ± 213
same,"Coenzyme Q10 concentration in plasma, Mean ± SD","[1]; 274 mg/kg/week, Arm 1, n = 3 (so in the source), time 142 hr",514 ± 260
same,"Coenzyme Q10 concentration in plasma, Mean ± SD","[1]; 274 mg/kg/week, Arm 1, n = 3 (so in the source), time 143.5 hr",510 ± 259
same,"Coenzyme Q10 concentration in plasma, Mean ± SD","[1]; 274 mg/kg/week, Arm 1, n = 3 (so in the source), time 146 hr",486 ± 254
same,"Coenzyme Q10 concentration in plasma, Mean ± SD","[1]; 274 mg/kg/week, Arm 1, n = 3 (so in the source), time 148 hr",380 ± 219
same,"Coenzyme Q10 concentration in plasma, Mean ± SD","[1]; 274 mg/kg/week, Arm 1, n = 4 (footnote e), time 96 hr",407 ± 195^e
same,"Coenzyme Q10 concentration in plasma, Mean ± SD","[1]; 274 mg/kg/week, Arm 1, n = 4 (footnote e), time 140 hr",517 ± 185^e
same,"Coenzyme Q10 concentration in plasma, Mean ± SD","[1]; 274 mg/kg/week, Arm 1, n = 4 (footnote e), time 142 hr",528 ± 179^e
same,"Coenzyme Q10 concentration in plasma, Mean ± SD","[1]; 274 mg/kg/week, Arm 1, n = 5 (footnote d), time 4 hr",181 ± 56^d
same,"Coenzyme Q10 concentration in plasma, Mean ± SD","[1]; 274 mg/kg/week, Arm 1, n = 5 (footnote d), time 71.5 hr",265 ± 188^d
same,"Coenzyme Q10 concentration in plasma, Mean ± SD","[1]; 274 mg/kg/week, Arm 1, n = 5 (footnote d), time 146 hr",460 ± 249^d
same,"Coenzyme Q10 concentration in plasma, Mean ± SD","[1]; 274 mg/kg/week, Arm 1, n = 5 (footnote d), time 148 hr",397 ± 230^d
same,"Coenzyme Q10 concentration in plasma, Mean ± SD","[1]; 274 mg/kg/week, Arm 1, n = 6, time 0 hr",0
same,"Coenzyme Q10 concentration in plasma, Mean ± SD","[1]; 274 mg/kg/week, Arm 1, n = 6, time 1 hr",188 ± 46
same,"Coenzyme Q10 concentration in plasma, Mean ± SD","[1]; 274 mg/kg/week, Arm 1, n = 6, time 2 hr",190 ± 38
same,"Coenzyme Q10 concentration in plasma, Mean ± SD","[1]; 274 mg/kg/week, Arm 1, n = 6, time 24 hr",287 ± 189
same,"Coenzyme Q10 concentration in plasma, Mean ± SD","[1]; 274 mg/kg/week, Arm 1, n = 6, time 73 hr",367 ± 313
same,"Coenzyme Q10 concentration in plasma, Mean ± SD","[1]; 274 mg/kg/week, Arm 1, n = 6, time 74 hr",387 ± 332
same,"Coenzyme Q10 concentration in plasma, Mean ± SD","[1]; 274 mg/kg/week, Arm 1, n = 6, time 143.5 hr",560 ± 246
same,"Coenzyme Q10 concentration in plasma, Mean ± SD","[1]; 342 mg/kg/week, Arm 1, n = 4 (footnote e), time 96 hr",411 ± 189^e
same,"Coenzyme Q10 concentration in plasma, Mean ± SD","[1]; 342 mg/kg/week, Arm 1, n = 4 (footnote e), time 140 hr",695 ± 414^e
same,"Coenzyme Q10 concentration in plasma, Mean ± SD","[1]; 342 mg/kg/week, Arm 1, n = 4 (footnote e), time 143.5 hr",789 ± 161^e
same,"Coenzyme Q10 concentration in plasma, Mean ± SD","[1]; 342 mg/kg/week, Arm 1, n = 4 (footnote e), time 146 hr",679 ± 141^e
same,"Coenzyme Q10 concentration in plasma, Mean ± SD","[1]; 342 mg/kg/week, Arm 1, n = 4 (footnote e), time 148 hr",596 ± 143^e
same,"Coenzyme Q10 concentration in plasma, Mean ± SD","[1]; 342 mg/kg/week, Arm 1, n = 5, time 0 hr",0
same,"Coenzyme Q10 concentration in plasma, Mean ± SD","[1]; 342 mg/kg/week, Arm 1, n = 5, time 1 hr",289 ± 59
same,"Coenzyme Q10 concentration in plasma, Mean ± SD","[1]; 342 mg/kg/week, Arm 1, n = 5, time 2 hr",297 ± 81
same,"Coenzyme Q10 concentration in plasma, Mean ± SD","[1]; 342 mg/kg/week, Arm 1, n = 5, time 4 hr",304 ± 90
same,"Coenzyme Q10 concentration in plasma, Mean ± SD","[1]; 342 mg/kg/week, Arm 1, n = 5, time 24 hr",463 ± 274
same,"Coenzyme Q10 concentration in plasma, Mean ± SD","[1]; 342 mg/kg/week, Arm 1, n = 5, time 71.5 hr",563 ± 188
same,"Coenzyme Q10 concentration in plasma, Mean ± SD","[1]; 342 mg/kg/week, Arm 1, n = 5, time 73 hr",514 ± 205
same,"Coenzyme Q10 concentration in plasma, Mean ± SD","[1]; 342 mg/kg/week, Arm 1, n = 5, time 74 hr",537 ± 219
same,"Coenzyme Q10 concentration in plasma, Mean ± SD","[1]; 342 mg/kg/week, Arm 1, n = 5, time 142 hr",699 ± 290
same,"Mean plasma concentrations of Coenzyme Q10, comparison of doses","[1]; Arm 1 (monotherapy), exception: 96-hour sampling time, similar",higher for the 342 mg/kg/week dose than for the 274 mg/kg/week dose
same,Effect of concomitant chemotherapy on the pharmacokinetics of Coenzyme Q10,[1]; Arm 1 vs Arm 2 at any of the dose levels,no apparent effect
same,"Plasma profiles of Coenzyme Q10, comparison of doses","[1]; Arm 2 (chemotherapy combination therapy), first 72 hours of the infusion, distinctly higher during the second 72 hours",slightly higher for the 274 mg/kg/week dose than for the 220 mg/kg/week dose
same,Patients who maintained a minimum of Stable Disease for >4 cycles,[2],24%
